Assay: Crystallization onset of supersaturated solution stirred at 20° C., followed in a Crystalline PV device with CCD cameras
Type: physicochemical
Procedure: (§1) A concentrated solution 2 of (S)-1-(3-(((4-amino-2,2-dioxido-1H-benzo[c][1,2,6]thiadiazin-5-yl)oxy)methyl)piperidin-1-yl)-3-methylbutan-1-one at 1% (w/w) (10000 ppm) was prepared in water. The pH was adjusted to 11 using NaOH to form the (S)-1-(3-(((4-amino-2,2-dioxido-1H-benzo[c][1,2,6]thiadiazin-5-yl)oxy)methyl)piperidin-1-yl)-3-methylbutan-1-one sodium salt, and a homogeneous solution was obtained. Next, a syrup was prepared by mixing an aqueous solution of HFCS, citric acid and deionized water. […] of 100 ppm of (S)-1-(3-(((4-amino-2,2-dioxido-1H-benzo[c][1,2,6]thiadiazin-5-yl)oxy)methyl)piperidin-1-yl)-3-methylbutan-1-one, i.e. about 15 times above the intrinsic solubility of the compound at 20° C. The sample was stirred at 20° C. and crystallization was followed in a Crystalline PV device equipped with CCD cameras. Crystallization started after about 530 minutes.
as §1, with “acid, HydroxyPropyl Cellulose (HPC) 100k” for “acid”, “deionized water. The final syrup contained 43% fructose, 1% citric acid, 0.05% HPC and 55.95%” for “deionized”, “cameras.” for “cameras. Crystallization started after about 530 minutes.”
A concentrated solution 2 of (S)-1-(3-(((4-amino-2,2-dioxido-1H-benzo[c][1,2,6]thiadiazin-5-yl)oxy)methyl)piperidin-1-yl)-3-methylbutan-1-one at 1% (w/w) (10000 ppm) was prepared in water. The pH was adjusted to 11 using NaOH to form the (S)-1-(3-(((4-amino-2,2-dioxido-1H-benzo[c][1,2,6]thiadiazin-5-yl)oxy)methyl)piperidin-1-yl)-3-methylbutan-1-one sodium salt, and a homogeneous solution was obtained. Next, a citric acid buffer solution was prepared by mixing 50 mM citric acid in deionised water (pH=2.8). An aliquot of solution 2 was diluted 100 times with the buffer solution to yield a final concentration of 100 ppm of (S)-1-(3-(((4-amino-2,2-dioxido-1H-benzo[c][1,2,6]thiadiazin-5-yl)oxy)methyl)piperidin-1-yl)-3-methylbutan-1-one, i.e. about 15 times above the intrinsic solubility of the compound at 20° C. The sample was stirred at 20° C. and crystallization was followed in a Crystalline PV device equipped with CCD cameras.
A concentrated solution 2 of (S)-1-(3-(((4-amino-2,2-dioxido-1H-benzo[c][1,2,6]thiadiazin-5-yl)oxy)methyl)piperidin-1-yl)-3-methylbutan-1-one at 1% (w/w) (10000 ppm) was prepared in water. The pH was adjusted to 11 using NaOH to form the (S)-1-(3-(((4-amino-2,2-dioxido-1H-benzo[c][1,2,6]thiadiazin-5-yl)oxy)methyl)piperidin-1-yl)-3-methylbutan-1-one sodium salt, and a homogeneous solution was obtained. Next, a citric acid buffer solution was prepared by mixing 50 mM citric acid and carboxymethyl cellulose (CMC) in deionised water (pH=2.8). The final water solution contained 50 mM citric acid and 0.05% CMC. […]

Compound: CC(C)CC(=O)N1CCC[C@H](COc2cccc3c2C(N)=NS(=O)(=O)N3)C1 [(S)-1-(3-(((4-amino-2,2-dioxido-1H-benzo[c][1,2,6]thiadiazin-5-yl)oxy)methyl)piperidin-1-yl)-3-methylbutan-1-one]
- time until crystallization started (Example 5 (comparative): 100 ppm, syrup 43 Brix (43% fructose, 1% citric acid), no polymer): about 530 minutes
- time until first crystals were observed (Example 6: 100 ppm, syrup 43 Brix with 0.05% HPC 100k): about 3520 minutes
- time until first crystals were observed (Example 7 (comparative): 100 ppm, 50 mM citric acid buffer pH 2.8, no polymer): about 166 minutes
- time until first crystals were observed (Example 8: 100 ppm, 50 mM citric acid buffer pH 2.8 with 0.05% CMC): about 466 minutes
- crystallization observation (Example 9: 100 ppm, syrup 43 Brix with 0.05% HPMC 100k): No crystallization was observed after seven days

Reference: patent publication US20170188607A1, “SOLUBILIZATION OF A SWEET MODULATOR AND FLAVOR” (Firmenich SA, priority 2014, published 2017)
